Reference: patent EP4722207A1, “OXOISOINDOLINYL-SUBSTITUTED TETRAHYDROPYRIMIDINEDIONE DERIVATIVE AND USE THEREOF” (Gluetacs Therapeutics (Shanghai) Co., Ltd., priority 2023, dated 2024)

Key:
Assay type in all cases: cell-based
Settings in all cases: 24 hours of compound treatment, 50 nM and 500 nM
WEE1 = target: T1, WEE1 (Homo sapiens, UniProt P30291+Q96SW2); experiment: Western-blot assay, substrate protein degradation in hPBMCs: WEE1
T1 construct: effects of the compounds of the present disclosure on the expression of target proteins in cells; endogenous in cells; host or cells: human PBMCs (hPBMCs)

IKZF1 = target: T2, IKZF1 (Homo sapiens, UniProt Q13422+Q96SW2); experiment: Western-blot assay, substrate protein degradation in hPBMCs: IKZF1
T2 construct: effects of the compounds of the present disclosure on the expression of target proteins in cells; endogenous in cells; host or cells: human PBMCs (hPBMCs)

IKZF2 = target: T3, IKZF2 (Homo sapiens, UniProt Q96SW2+Q9UKS7); experiment: Western-blot assay, substrate protein degradation in hPBMCs: IKZF2
T3 construct: effects of the compounds of the present disclosure on the expression of target proteins in cells; endogenous in cells; host or cells: human PBMCs (hPBMCs)

CK1α = target: T4, CK1α (Homo sapiens, UniProt P48729+Q96SW2); experiment: Western-blot assay, substrate protein degradation in hPBMCs: CK1α
T4 construct: effects of the compounds of the present disclosure on the expression of target proteins in cells; endogenous in cells; host or cells: human PBMCs (hPBMCs)

GSPT1 = target: T5, GSPT1 (Homo sapiens, UniProt P15170+Q96SW2); experiment: Western-blot assay, substrate protein degradation in hPBMCs: GSPT1
T5 construct: effects of the compounds of the present disclosure on the expression of target proteins in cells; endogenous in cells; host or cells: human PBMCs (hPBMCs)

IKZF3 = target: T6, IKZF3 (Homo sapiens, UniProt Q96SW2+Q9UKT9); experiment: Western-blot assay, substrate protein degradation in hPBMCs: IKZF3
T6 construct: effects of the compounds of the present disclosure on the expression of target proteins in cells; endogenous in cells; host or cells: human PBMCs (hPBMCs)
T6 sequence (Q9UKT9 whole entry): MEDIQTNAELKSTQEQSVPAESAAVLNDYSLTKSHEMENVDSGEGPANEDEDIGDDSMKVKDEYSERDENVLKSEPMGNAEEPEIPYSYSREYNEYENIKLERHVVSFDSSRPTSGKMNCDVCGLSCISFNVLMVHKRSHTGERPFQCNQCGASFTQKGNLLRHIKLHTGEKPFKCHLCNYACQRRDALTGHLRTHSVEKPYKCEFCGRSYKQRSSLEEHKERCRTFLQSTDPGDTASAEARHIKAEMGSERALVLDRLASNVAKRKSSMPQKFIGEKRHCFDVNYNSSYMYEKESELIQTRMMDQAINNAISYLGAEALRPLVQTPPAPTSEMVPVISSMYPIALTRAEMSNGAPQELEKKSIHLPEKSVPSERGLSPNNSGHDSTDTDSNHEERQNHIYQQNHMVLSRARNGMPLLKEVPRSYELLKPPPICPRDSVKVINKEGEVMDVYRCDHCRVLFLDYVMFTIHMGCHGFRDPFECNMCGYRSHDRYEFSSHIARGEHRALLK
T6 sequence (Q96SW2 whole entry): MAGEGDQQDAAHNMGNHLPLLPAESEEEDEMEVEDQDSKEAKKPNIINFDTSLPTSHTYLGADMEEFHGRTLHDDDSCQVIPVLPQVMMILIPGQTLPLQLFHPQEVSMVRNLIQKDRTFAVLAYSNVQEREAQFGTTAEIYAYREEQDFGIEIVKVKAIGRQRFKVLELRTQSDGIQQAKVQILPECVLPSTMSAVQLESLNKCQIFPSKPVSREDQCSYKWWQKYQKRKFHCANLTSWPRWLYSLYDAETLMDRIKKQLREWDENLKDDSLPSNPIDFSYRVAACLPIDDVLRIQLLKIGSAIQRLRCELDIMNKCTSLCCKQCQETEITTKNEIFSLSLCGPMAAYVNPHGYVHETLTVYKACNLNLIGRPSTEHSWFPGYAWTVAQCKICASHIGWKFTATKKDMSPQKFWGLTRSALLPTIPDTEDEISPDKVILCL
T6 sequence (Q16531 whole entry partner): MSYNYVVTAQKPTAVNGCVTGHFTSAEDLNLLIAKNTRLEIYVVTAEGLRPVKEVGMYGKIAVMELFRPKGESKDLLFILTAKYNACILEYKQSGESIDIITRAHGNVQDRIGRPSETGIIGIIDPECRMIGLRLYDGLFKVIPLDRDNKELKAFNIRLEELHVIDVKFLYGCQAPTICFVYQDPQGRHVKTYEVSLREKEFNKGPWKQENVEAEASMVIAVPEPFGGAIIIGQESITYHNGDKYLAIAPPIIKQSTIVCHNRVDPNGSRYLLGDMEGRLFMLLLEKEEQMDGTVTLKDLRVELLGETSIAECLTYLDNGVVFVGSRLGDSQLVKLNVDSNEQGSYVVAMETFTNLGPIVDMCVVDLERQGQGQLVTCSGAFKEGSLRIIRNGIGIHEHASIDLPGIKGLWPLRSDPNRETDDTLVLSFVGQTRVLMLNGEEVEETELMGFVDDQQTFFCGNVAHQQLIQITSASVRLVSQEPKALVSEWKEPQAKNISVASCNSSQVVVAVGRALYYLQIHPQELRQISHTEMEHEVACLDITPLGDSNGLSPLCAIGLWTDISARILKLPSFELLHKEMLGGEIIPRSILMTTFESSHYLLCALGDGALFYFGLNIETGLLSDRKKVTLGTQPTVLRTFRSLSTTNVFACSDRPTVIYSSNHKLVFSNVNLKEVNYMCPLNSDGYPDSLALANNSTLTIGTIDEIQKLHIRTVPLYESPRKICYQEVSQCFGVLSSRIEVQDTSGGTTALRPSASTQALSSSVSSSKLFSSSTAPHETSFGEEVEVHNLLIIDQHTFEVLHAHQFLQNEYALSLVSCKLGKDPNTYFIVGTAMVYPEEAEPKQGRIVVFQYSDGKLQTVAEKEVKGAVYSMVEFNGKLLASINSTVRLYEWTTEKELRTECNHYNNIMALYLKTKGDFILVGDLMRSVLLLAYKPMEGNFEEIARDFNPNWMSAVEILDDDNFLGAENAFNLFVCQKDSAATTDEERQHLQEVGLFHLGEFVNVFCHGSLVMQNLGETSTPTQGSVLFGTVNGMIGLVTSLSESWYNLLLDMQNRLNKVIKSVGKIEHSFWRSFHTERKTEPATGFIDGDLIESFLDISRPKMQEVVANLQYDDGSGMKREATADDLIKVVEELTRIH

T1 sequence (P30291 whole entry): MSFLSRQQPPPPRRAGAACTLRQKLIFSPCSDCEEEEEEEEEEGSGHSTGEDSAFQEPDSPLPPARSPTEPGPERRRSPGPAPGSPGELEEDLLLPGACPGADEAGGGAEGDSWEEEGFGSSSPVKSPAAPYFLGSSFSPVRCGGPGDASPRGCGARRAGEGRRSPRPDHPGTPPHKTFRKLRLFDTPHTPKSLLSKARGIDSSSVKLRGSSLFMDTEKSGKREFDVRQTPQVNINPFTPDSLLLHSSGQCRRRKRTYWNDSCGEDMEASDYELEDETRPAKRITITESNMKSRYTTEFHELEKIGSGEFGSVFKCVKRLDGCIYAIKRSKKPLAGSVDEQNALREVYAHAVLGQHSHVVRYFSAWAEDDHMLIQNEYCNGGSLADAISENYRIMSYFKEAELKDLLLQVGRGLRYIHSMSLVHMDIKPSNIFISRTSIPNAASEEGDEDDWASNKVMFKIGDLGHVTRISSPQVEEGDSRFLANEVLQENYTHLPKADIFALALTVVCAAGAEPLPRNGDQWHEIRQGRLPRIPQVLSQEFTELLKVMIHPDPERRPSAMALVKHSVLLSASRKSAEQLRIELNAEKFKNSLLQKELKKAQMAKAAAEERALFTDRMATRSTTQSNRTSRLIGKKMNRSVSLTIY
T1 sequence (Q96SW2 whole entry): as the sequence (Q96SW2 whole entry) above
T1 sequence (Q16531 whole entry partner): as the sequence (Q16531 whole entry partner) above
T2 sequence (Q13422 whole entry): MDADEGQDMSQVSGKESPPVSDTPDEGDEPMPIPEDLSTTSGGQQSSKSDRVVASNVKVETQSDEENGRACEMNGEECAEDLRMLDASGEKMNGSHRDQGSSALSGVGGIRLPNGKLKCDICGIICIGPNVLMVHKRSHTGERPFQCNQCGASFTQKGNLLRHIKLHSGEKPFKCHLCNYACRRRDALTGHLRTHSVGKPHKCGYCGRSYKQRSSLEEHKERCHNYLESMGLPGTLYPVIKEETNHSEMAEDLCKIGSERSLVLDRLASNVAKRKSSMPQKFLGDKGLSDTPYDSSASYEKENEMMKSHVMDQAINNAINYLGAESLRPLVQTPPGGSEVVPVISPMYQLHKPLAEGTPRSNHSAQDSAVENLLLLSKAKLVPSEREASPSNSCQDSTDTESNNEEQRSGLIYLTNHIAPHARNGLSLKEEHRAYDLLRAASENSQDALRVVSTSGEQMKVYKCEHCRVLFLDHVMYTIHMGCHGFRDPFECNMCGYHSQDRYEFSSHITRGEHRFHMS
T2 sequence (Q96SW2 whole entry): as the sequence (Q96SW2 whole entry) above
T2 sequence (Q16531 whole entry partner): as the sequence (Q16531 whole entry partner) above
T5 sequence (P15170 whole entry): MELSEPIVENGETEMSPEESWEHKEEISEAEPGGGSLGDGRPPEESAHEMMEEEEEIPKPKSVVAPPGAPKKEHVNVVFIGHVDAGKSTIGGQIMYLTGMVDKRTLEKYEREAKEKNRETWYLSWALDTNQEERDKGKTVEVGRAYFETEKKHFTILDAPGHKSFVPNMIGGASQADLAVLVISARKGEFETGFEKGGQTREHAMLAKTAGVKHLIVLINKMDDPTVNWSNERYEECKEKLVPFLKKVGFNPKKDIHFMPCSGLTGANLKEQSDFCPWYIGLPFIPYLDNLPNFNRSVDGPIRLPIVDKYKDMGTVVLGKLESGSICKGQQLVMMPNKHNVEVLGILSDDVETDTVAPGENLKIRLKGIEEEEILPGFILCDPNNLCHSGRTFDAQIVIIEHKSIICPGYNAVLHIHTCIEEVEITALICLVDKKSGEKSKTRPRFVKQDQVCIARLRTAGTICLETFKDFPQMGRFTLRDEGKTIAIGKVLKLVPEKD
T5 sequence (Q96SW2 whole entry): as the sequence (Q96SW2 whole entry) above
T5 sequence (Q16531 whole entry partner): as the sequence (Q16531 whole entry partner) above
T3 sequence (Q9UKS7 whole entry): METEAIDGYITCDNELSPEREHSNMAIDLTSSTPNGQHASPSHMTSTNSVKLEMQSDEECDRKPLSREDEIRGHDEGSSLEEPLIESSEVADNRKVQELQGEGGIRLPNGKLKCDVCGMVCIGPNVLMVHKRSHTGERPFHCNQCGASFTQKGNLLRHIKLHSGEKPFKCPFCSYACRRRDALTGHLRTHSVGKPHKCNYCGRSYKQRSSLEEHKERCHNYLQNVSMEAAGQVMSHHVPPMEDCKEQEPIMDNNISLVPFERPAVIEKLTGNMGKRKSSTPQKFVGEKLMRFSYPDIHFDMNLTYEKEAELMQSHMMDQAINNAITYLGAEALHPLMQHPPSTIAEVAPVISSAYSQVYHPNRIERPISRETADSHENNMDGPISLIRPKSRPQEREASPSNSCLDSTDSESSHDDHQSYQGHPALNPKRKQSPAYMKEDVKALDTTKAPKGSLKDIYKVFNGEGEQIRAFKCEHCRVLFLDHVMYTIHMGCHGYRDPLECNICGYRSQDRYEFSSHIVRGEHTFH
T3 sequence (Q96SW2 whole entry): as the sequence (Q96SW2 whole entry) above
T3 sequence (Q16531 whole entry partner): as the sequence (Q16531 whole entry partner) above

SMILES | substrate protein remaining % WEE1 (WEE1) | substrate protein remaining % IKZF1 (IKZF1) | substrate protein remaining % IKZF2 (IKZF2) | substrate protein remaining % CK1α (CK1α) | substrate protein remaining % GSPT1 (GSPT1) | substrate protein remaining % IKZF3 (IKZF3)
Cc1cc(C2=CCN(Cc3ccc4c(c3)C(=O)N(N3CCC(=O)NC3=O)C4=O)CC2)cs1 [GT-07423, 2-(2,4-dioxotetrahydropyrimidin-1(2H)-yl)-5-((4-(5-methylthiophen-3-yl)-3,6-dihydropyridin-1(2H)-yl)methyl)isoindoline-1,3-dione] | A (0% ≤ substrate protein remaining % ≤ 80%) | B (80%< substrate protein remaining %≤ 100%) | B (80%< substrate protein remaining %≤ 100%) | A (0% ≤ substrate protein remaining % ≤ 80%) | A (0% ≤ substrate protein remaining % ≤ 80%) | A (0% ≤ substrate protein remaining % ≤ 80%)
O=C1CCN(N2C(=O)c3ccc(CN4CCC(c5cccs5)CC4)cc3C2=O)C(=O)N1 [GT-07424, 2-(2,4-dioxotetrahydropyrimidin-1(2H)-yl)-5-((4-(thiophen-2-yl)piperidin-1-yl)methyl)isoindoline-1,3-dione] | A (0% ≤ substrate protein remaining % ≤ 80%) | A (0% ≤ substrate protein remaining % ≤ 80%) | B (80%< substrate protein remaining %≤ 100%) | B (80%< substrate protein remaining %≤ 100%) | A (0% ≤ substrate protein remaining % ≤ 80%) | A (0% ≤ substrate protein remaining % ≤ 80%)
O=C1CCN(N2Cc3cc(CN4C[C@H]5C[C@@H]4CN5c4cccc(Cl)c4Cl)ccc3C2=O)C(=O)N1 [GT-07427, 1-(5-(((1R,4R)-5-(2,3-dichlorophenyl)-2,5-diazabicyclo[2.2.1]heptan-2-yl)methyl)-1-oxoisoindolin-2-yl)dihydropyrimidine-2,4(1H,3H)-dione] | A (0% ≤ substrate protein remaining % ≤ 80%) | A (0% ≤ substrate protein remaining % ≤ 80%) | B (80%< substrate protein remaining %≤ 100%) | A (0% ≤ substrate protein remaining % ≤ 80%) | A (0% ≤ substrate protein remaining % ≤ 80%) | B (80%< substrate protein remaining %≤ 100%)
O=C1CCN(N2Cc3cc(CN4CC5CCC4CN5c4cccc(Cl)c4Cl)ccc3C2=O)C(=O)N1 (stereo not drawn) [GT-07428, 1-(5-((5-(2,3-dichlorophenyl)-2,5-diazabicyclo[2.2.2]octan-2-yl)methyl)-1-oxoisoindolin-2-yl)dihydropyrimidine-2,4(1H,3H)-dione] | B (80%< substrate protein remaining %≤ 100%) | A (0% ≤ substrate protein remaining % ≤ 80%) | B (80%< substrate protein remaining %≤ 100%) | A (0% ≤ substrate protein remaining % ≤ 80%) | A (0% ≤ substrate protein remaining % ≤ 80%) | B (80%< substrate protein remaining %≤ 100%)
O=C1CCN(N2Cc3cc(CN4CC5CCC(C4)N5c4cccc(Cl)c4Cl)ccc3C2=O)C(=O)N1 [GT-07429, 1-(5-((8-(2,3-dichlorophenyl)-3,8-diazabicyclo[3.2.1]octan-3-yl)methyl)-1-oxoisoindolin-2-yl)dihydropyrimidine-2,4(1H,3H)-dione] | B (80%< substrate protein remaining %≤ 100%) | A (0% ≤ substrate protein remaining % ≤ 80%) | B (80%< substrate protein remaining %≤ 100%) | B (80%< substrate protein remaining %≤ 100%) | B (80%< substrate protein remaining %≤ 100%) | B (80%< substrate protein remaining %≤ 100%)
O=C1CCN(N2Cc3cc(CN4C5CCC4CN(c4cccc(Cl)c4Cl)C5)ccc3C2=O)C(=O)N1 [GT-07430, 1-(5-((3-(2,3-dichlorophenyl)-3,8-diazabicyclo[3.2.1]octan-8-yl)methyl)-1-oxoisoindolin-2-yl)dihydropyrimidine-2,4(1H,3H)-dione] | B (80%< substrate protein remaining %≤ 100%) | A (0% ≤ substrate protein remaining % ≤ 80%) | B (80%< substrate protein remaining %≤ 100%) | A (0% ≤ substrate protein remaining % ≤ 80%) | A (0% ≤ substrate protein remaining % ≤ 80%) | B (80%< substrate protein remaining %≤ 100%)
O=C1CCN(N2Cc3cc(CN4CCCN(c5cccc(Cl)c5Cl)CC4)ccc3C2=O)C(=O)N1 [GT-07431, 1-(5-((4-(2,3-dichlorophenyl)-1,4-diazepan-1-yl)methyl)-1-oxoisoindolin-2-yl)dihydropyrimidine-2,4(1H,3H)-dione] | B (80%< substrate protein remaining %≤ 100%) | A (0% ≤ substrate protein remaining % ≤ 80%) | B (80%< substrate protein remaining %≤ 100%) | A (0% ≤ substrate protein remaining % ≤ 80%) | B (80%< substrate protein remaining %≤ 100%) | B (80%< substrate protein remaining %≤ 100%)
CC1CN(C(c2ccccc2)c2ccccc2)CC(C)N1Cc1ccc2c(c1)CN(N1CCC(=O)NC1=O)C2=O (stereo not drawn) [GT-07433, 1-(5-((4-benzhydryl-2,6-dimethylpiperazin-1-yl)methyl)-1-oxoisoindolin-2-yl)dihydropyrimidine-2,4(1H,3H)-dione] | B (80%< substrate protein remaining %≤ 100%) | B (80%< substrate protein remaining %≤ 100%) | A (0% ≤ substrate protein remaining % ≤ 80%) | A (0% ≤ substrate protein remaining % ≤ 80%) | B (80%< substrate protein remaining %≤ 100%) | B (80%< substrate protein remaining %≤ 100%)
O=C1CCN(N2C(=O)c3ccc(CN4CC5CC(C4)N5c4cccc(Cl)c4Cl)cc3C2=O)C(=O)N1 [GT-07434, 5-((6-(2,3-dichlorophenyl)-3,6-diazabicyclo[3.1.1]heptan-3-yl)methyl)-2-(2,4-dioxotetrahydropyrimidin-1(2H)-yl)isoindoline-1,3-dione] | B (80%< substrate protein remaining %≤ 100%) | B (80%< substrate protein remaining %≤ 100%) | B (80%< substrate protein remaining %≤ 100%) | A (0% ≤ substrate protein remaining % ≤ 80%) | B (80%< substrate protein remaining %≤ 100%) | B (80%< substrate protein remaining %≤ 100%)
O=C1CCN(N2C(=O)c3ccc(CN4C[C@H]5C[C@@H]4CN5c4cccc(Cl)c4Cl)cc3C2=O)C(=O)N1 [GT-07435, 5-(((1R,4R)-5-(2,3-dichlorophenyl)-2,5-diazabicyclo[2.2.1]heptan-2-yl)methyl)-2-(2,4-dioxotetrahydropyrimidin-1(2H)-yl)isoindoline-1,3-dione] | B (80%< substrate protein remaining %≤ 100%) | B (80%< substrate protein remaining %≤ 100%) | B (80%< substrate protein remaining %≤ 100%) | A (0% ≤ substrate protein remaining % ≤ 80%) | B (80%< substrate protein remaining %≤ 100%) | B (80%< substrate protein remaining %≤ 100%)
O=C1CCN(N2C(=O)c3ccc(CN4CC5CCC4CN5c4cccc(Cl)c4Cl)cc3C2=O)C(=O)N1 (stereo not drawn) [GT-07436, 5-((5-(2,3-dichlorophenyl)-2,5-diazabicyclo[2.2.2]octan-2-yl)methyl)-2-(2,4-dioxotetrahydropyrimidin-1(2H)-yl)isoindoline-1,3-dione] | B (80%< substrate protein remaining %≤ 100%) | B (80%< substrate protein remaining %≤ 100%) | A (0% ≤ substrate protein remaining % ≤ 80%) | A (0% ≤ substrate protein remaining % ≤ 80%) | B (80%< substrate protein remaining %≤ 100%) | B (80%< substrate protein remaining %≤ 100%)
O=C1CCN(N2C(=O)c3ccc(CN4CC5CCC(C4)N5c4cccc(Cl)c4Cl)cc3C2=O)C(=O)N1 [GT-07437, 5-((8-(2,3-dichlorophenyl)-3,8-diazabicyclo[3.2.1]octan-3-yl)methyl)-2-(2,4-dioxotetrahydropyrimidin-1(2H)-yl)isoindoline-1,3-dione] | A (0% ≤ substrate protein remaining % ≤ 80%) | B (80%< substrate protein remaining %≤ 100%) | B (80%< substrate protein remaining %≤ 100%) | A (0% ≤ substrate protein remaining % ≤ 80%) | A (0% ≤ substrate protein remaining % ≤ 80%) | B (80%< substrate protein remaining %≤ 100%)
